Conditions: topical or ocular, 5 microgram per mL
Method: Liver microsomal stability assays were conducted at 1 mg per mL liver microsome protein with an NADPH-generating system in 2% NaHCO3 (2.2 mM NADPH, 25.6 mM glucose 6-phosphate, 6 units per mL glucose 6-phosphate dehydrogenase and 3.3 mM MgCl2). Test compounds were prepared as solutions in 20% acetonitrile-water and added to the assay mixture (final assay concentration 5 microgram per mL) and incubated at 37° C. Final concentration of acetonitrile in the assay should be <1%. Aliquots (50 μL) were taken out at times 0, 15, 30, 45, and 60 minutes, and diluted with ice cold acetonitrile (200 μL) to stop the reactions. Samples were centrifuged at 12000 RPM for 10 minutes to precipitate proteins. Supernatants were transferred to microcentrifuge tubes and stored for LC/MS/MS analysis of the degradation half-life of the test compounds.

SMILES | increase in the degradation half-life as compared to the non-isotopically enriched drug (clarithromycin)
[2H]C([2H])([2H])O[C@]1(C)C[C@@H](C)C(=O)[C@H](C)[C@@H](O)[C@](C)(O)[C@@H](CC)OC(=O)[C@H](C)[C@@H](O[C@H]2C[C@@](C)(OC)[C@@H](O)[C@H](C)O2)[C@H](C)[C@H]1O[C@@H]1O[C@H](C)C[C@H](N(C)C)[C@H]1O [Example 8, d3-6-O-Methyl-Erythromycin A (d3-clarithromycin)] | 10-400%
[2H]C([2H])([2H])O[C@]1(C)C[C@@H](C)C(=O)[C@H](C)[C@@H](O)[C@](C)(O)[C@@H](CC)OC(=O)[C@H](C)[C@@H](O[C@H]2C[C@@](C)(OC)[C@@H](O)[C@H](C)O2)[C@H](C)[C@H]1O[C@@H]1O[C@H](C)C[C@H](N(C)C([2H])([2H])[2H])[C@H]1O [Example 11, d6-6-O-Methyl-Erythromycin A (d6-clarithromycin)] | 10-400%
[2H]C([2H])([2H])N(C)[C@H]1C[C@@H](C)O[C@@H](O[C@@H]2[C@@H](C)[C@H](O[C@H]3C[C@@](C)(OC)[C@@H](O)[C@H](C)O3)[C@@H](C)C(=O)O[C@H](CC)[C@@](C)(O)[C@H](O)[C@@H](C)C(=O)[C@H](C)C[C@@]2(C)OC)[C@@H]1O [Example 12, d3-6-O-Methyl-Erythromycin A (d3-clarithromycin)] | 10-400%

— patent US20070281894A1, “PREPARATION AND UTILITY OF SUBSTITUTED ERYTHROMYCIN ANALOGS” (Auspex Pharmaceuticals, Inc., priority 2006, published 2007)
